≈ marks a conversion by molar mass, not a printed value.
Tests used:
Solubility test = type: physicochemical; details: room temperature, water
[1] = Stability test in distilled water; type: physicochemical; details: 30 mg in 100 ml distilled water
Male ICR mice = assay: Single dose toxicity in mice (LD50); details: single intraperitoneal dose, observed 14 days
Experimental: The following experiment was performed in order to observe the degree of toxicity of the L-aspartate according to the present invention.
Male ICR mice were used as experimental animals. 5 male ICR mice were divided into 6 dose groups, respectively and fasted except for water for 24 hours.

SMILES	solubility (Solubility test)	Content (%) 60? (after 3 weeks) [1]	Content (%) Initial [1]	Content (%) Room temperature (after 3 weeks) [1]	Lethal dose 50 (Male ICR mice)
CON=C1CN(c2nc3c(cc2F)c(=O)c(C(=O)O)cn3C2CC2)C[C@@]1(C)CN.Cc1ccc(S(=O)(=O)O)cc1	5.78 mg/mL	87.3%	98.6%	98.1%	–
CON=C1CN(c2nc3c(cc2F)c(=O)c(C(=O)O)cn3C2CC2)C[C@@]1(C)CN.O=CO [Formate (Comparative Example 5)]	27.5 mg/mL	75.1%	89.7%	89.7%	–
CON=C1CN(c2nc3c(cc2F)c(=O)c(C(=O)O)cn3C2CC2)C[C@@]1(C)CN [Free form (Comparative Example 2)]	2.79 mg/mL (≈ 6.92 mM)	34.6%	97.3%	96.8%	–
CON=C1CN(c2nc3c(cc2F)c(=O)c(C(=O)O)cn3C2CC2)C[C@@]1(C)CN.CS(=O)(=O)O [Methanesulfonate (Comparative Example 4)]	99.1 mg/mL	89.6%	96.4%	96.8%	–
CON=C1CN(c2nc3c(cc2F)c(=O)c(C(=O)O)cn3C2CC2)C[C@@]1(C)CN.O=P(O)(O)O [Phosphate (Comparative Example 6)]	57.8 mg/mL	91.2%	98.1%	97.9%	176 mg/kg

— patent US9751840B2, “R-7-(3-aminomethyl-4-methoxyimino-3-methyl-pyrrolidin-1-yl)-1-cyclopropyl-6-fluoro-4-oxo-acid and L-aspartic acid salt, process for the preparation thereof and pharmaceutical composition comprising the same for antimicrobial” (ARIBIO CO. LTD., priority 2009, dated 2017)
